The test system of one experiment is HIV-HXB. Nature of the experiment: Inhibition of syncytia formation, HIV-HXB (HTLV-IIIB). The following applies: for EC100: Human immunodeficiency virus 1, 18 h, read-out: HIV-HXB ED100, complete inhibition of syncytia formation.
A further experiment deals with HIV-RF-II. In words: Inhibition of syncytia formation, HIV-RF-II. The note with it: for EC100: Human immunodeficiency virus 1, 18 h, read-out: HIV-RF-II ED100, complete inhibition of syncytia formation.
Setting [1] is: complete inhibition of syncytia formation.

The results in this text go back to patent US5441983A, “Treatment of infection by enveloped virus with calix(N)arene compounds” (Genelabs Incorporated, priority 1992, dated 1995).

Structures are written as SMILES.

Experimental for HIV-HXB: (§1) Briefly, cells chronically infected with HTLV-IIIB or RF-II HIV strains were incubated in the presence of serial dilutions of the selected KY compound, then further cocultured with indicator cells. The extent of syncytia formation was scored under phase microscopy.
(§2) Representative calix(n)arene compounds from Table 2 were tested for inhibition of cytopathic effects in cells infected with one of two HTLV-III strains, HTLV-IIIB and RF-II strains, as described in Example 12, and in the subsection above.
(§3) Human CD4^+ indicator cells (VB) and chronically infected H9 cells were maintained in RPMI-1640 medium supplemented with 5% fetal calf serum, 100 Units of penicillin per ml and 100 μg of streptomycin per ml at 37° C. in a humidified incubator containing 7% CO2.
(§4) For the fusion assay, serial dilutions between 1:2 and 1:2^8 of a selected KY compound, 1 mg/ml in PBS were made in a 96 well round bottom plate. The diluted KY compound was transferred to a 96 well flat-bottom plate. To each well was added 25 μg chronically infected H9 cells (at 2×10^6, cells/ml), or cells chronically infected with RF-II strain HIV, followed by incubation at 37° C. for 45 minutes. To each well was then added 25 μl VB cells (about 5×10^4 cells), and the cells and virus isolates were cocultured for 18 hours in a humid 5% CO2 atmosphere.
Experimental for HIV-RF-II: as §1, §2, §3, §4

On to `O=S(=O)(O)c1c2c(O)c3c(O)c(c(S(=O)(=O)O)c(O)c3c1O)C(c1ccccc1)c1c(S(=O)(=O)O)c(O)c3c(O)c(S(=O)(=O)O)c(c(O)c3c1O)C(c1ccccc1)c1c(S(=O)(=O)O)c(O)c3c(O)c(S(=O)(=O)O)c(c(O)c3c1O)C(c1ccccc1)c1c(S(=O)(=O)O)c(O)c3c(O)c(S(=O)(=O)O)c(c(O)c3c1O)C2c1ccccc1` (centres unmarked) [KY-85], for which the EC100 in the experiment with HIV-HXB was determined as 32 µg/mL.

For the compound `O=S(=O)(Nc1ccccc1)c1cc2cc(S(=O)(=O)Nc3ccccc3)c3c(O)c2c(O)c1Cc1c(S(=O)(=O)Nc2ccccc2)cc2cc(S(=O)(=O)Nc4ccccc4)c(c(O)c2c1O)Cc1c(S(=O)(=O)Nc2ccccc2)cc2cc(S(=O)(=O)Nc4ccccc4)c(c(O)c2c1O)Cc1c(S(=O)(=O)Nc2ccccc2)cc2cc(S(=O)(=O)Nc4ccccc4)c(c(O)c2c1O)C3` [KY-176], the EC100 with HIV-RF-II was determined as 250 µg/mL; in the experiment with HIV-HXB, 125 µg/mL.

With `O=S(=O)(O)c1c2c(O)c3c(O)c(c(S(=O)(=O)O)c(Br)c3c1Br)C(C(Br)CBr)c1c(S(=O)(=O)O)c(Br)c3c(Br)c(S(=O)(=O)O)c(c(O)c3c1O)C(C(Br)CBr)c1c(S(=O)(=O)O)c(Br)c3c(Br)c(S(=O)(=O)O)c(c(O)c3c1O)C(C(Br)CBr)c1c(S(=O)(=O)O)c(Br)c3c(Br)c(S(=O)(=O)O)c(c(O)c3c1O)C2C(Br)CBr` (centres unmarked) [KY-193], the values for the EC100 in the experiment with HIV-RF-II and in the experiment on HIV-HXB were 500 µg/mL and 63 µg/mL, respectively.

Take `CC(=O)Oc1c2c(S(=O)(=O)O)cc3cc(S(=O)(=O)O)c(c(OC(C)=O)c13)Cc1c(S(=O)(=O)O)cc3cc(S(=O)(=O)O)c(c(OC(C)=O)c3c1OC(C)=O)Cc1c(S(=O)(=O)O)cc3cc(S(=O)(=O)O)c(c(OC(C)=O)c3c1OC(C)=O)Cc1c(S(=O)(=O)O)cc3cc(S(=O)(=O)O)c(c(OC(C)=O)c3c1OC(C)=O)C2` [KY-270]: the values for the EC100 with HIV-RF-II and in the experiment on HIV-HXB were 32 µg/mL and 16 µg/mL, respectively.

On to `CC(=O)Oc1c2c(S(=O)(=O)O)cc3cc(S(=O)(=O)O)c(c(OC(C)=O)c13)C(C(=O)O)c1c(S(=O)(=O)O)cc3cc(S(=O)(=O)O)c(c(OC(C)=O)c3c1OC(C)=O)C(C(=O)O)c1c(S(=O)(=O)O)cc3cc(S(=O)(=O)O)c(c(OC(C)=O)c3c1OC(C)=O)C(C(=O)O)c1c(S(=O)(=O)O)cc3cc(S(=O)(=O)O)c(c(OC(C)=O)c3c1OC(C)=O)C2C(=O)O` (centres unmarked) [KY-272], for which the EC100 worked out at 250 µg/mL in the experiment with HIV-RF-II and 63 µg/mL in the experiment with HIV-HXB.

Regarding `CCC(=O)Oc1c2c(S(=O)(=O)O)cc3cc(S(=O)(=O)O)c(c(OC(=O)CC)c13)Cc1c(S(=O)(=O)O)cc3cc(S(=O)(=O)O)c(c(OC(=O)CC)c3c1OC(=O)CC)Cc1c(S(=O)(=O)O)cc3cc(S(=O)(=O)O)c(c(OC(=O)CC)c3c1OC(=O)CC)Cc1c(S(=O)(=O)O)cc3cc(S(=O)(=O)O)c(c(OC(=O)CC)c3c1OC(=O)CC)C2` [KY-276], the EC100 with HIV-RF-II was 32 µg/mL; in the experiment with HIV-HXB, 16 µg/mL.

As to `CCCC(=O)Oc1c2c(S(=O)(=O)O)cc3cc(S(=O)(=O)O)c(c(OC(=O)CCC)c13)Cc1c(S(=O)(=O)O)cc3cc(S(=O)(=O)O)c(c(OC(=O)CCC)c3c1OC(=O)CCC)Cc1c(S(=O)(=O)O)cc3cc(S(=O)(=O)O)c(c(OC(=O)CCC)c3c1OC(=O)CCC)Cc1c(S(=O)(=O)O)cc3cc(S(=O)(=O)O)c(c(OC(=O)CCC)c3c1OC(=O)CCC)C2` [KY-281], the EC100 was found to be 32 µg/mL with HIV-RF-II and 16 µg/mL in the experiment with HIV-HXB.

Regarding `COc1c2c(S(=O)(=O)O)cc3cc(S(=O)(=O)O)c(c(OC)c13)C(C(=O)O)c1c(S(=O)(=O)O)cc3cc(S(=O)(=O)O)c(c(OC)c3c1OC)C(C(=O)O)c1c(S(=O)(=O)O)cc3cc(S(=O)(=O)O)c(c(OC)c3c1OC)C(C(=O)O)c1c(S(=O)(=O)O)cc3cc(S(=O)(=O)O)c(c(OC)c3c1OC)C2C(=O)O` (centres unmarked) [KY-284], the EC100 in the experiment with HIV-RF-II was found to be 32 µg/mL; with HIV-HXB, 16 µg/mL.

Turning to `CCCC(=O)Oc1c2c(S(=O)(=O)O)cc3cc(S(=O)(=O)O)c(c(OC(=O)CCC)c13)Cc1c(S(=O)(=O)O)cc3cc(S(=O)(=O)O)c(c(OC(=O)CCC)c3c1OC(=O)CCC)Cc1c(S(=O)(=O)O)cc3cc(S(=O)(=O)O)c(c(OC(=O)CCC)c3c1OC(=O)CCC)Cc1c(S(=O)(=O)O)cc3cc(S(=O)(=O)O)c(c(OC(=O)CCC)c3c1OC(=O)CCC)C2` [KY-288], in the experiment with HIV-RF-II (setting [1]), the “HIV-RF-II ED100” value is 16. The “HIV-HXB ED100” value in the experiment on HIV-HXB (setting [1]) came out at 8.

Consider `CCCCC(=O)Oc1c2c(S(=O)(=O)O)cc3cc(S(=O)(=O)O)c(c(OC(=O)CCCC)c13)Cc1c(S(=O)(=O)O)cc3cc(S(=O)(=O)O)c(c(OC(=O)CCCC)c3c1OC(=O)CCCC)Cc1c(S(=O)(=O)O)cc3cc(S(=O)(=O)O)c(c(OC(=O)CCCC)c3c1OC(=O)CCCC)Cc1c(S(=O)(=O)O)cc3cc(S(=O)(=O)O)c(c(OC(=O)CCCC)c3c1OC(=O)CCCC)C2` [KY-289], for which the values for the EC100 in the experiment with HIV-RF-II and in the experiment with HIV-HXB were 32 µg/mL and 16 µg/mL, respectively.

For the compound `CCCCCC(=O)Oc1c2c(S(=O)(=O)O)cc3cc(S(=O)(=O)O)c(c(OC(=O)CCCCC)c13)Cc1c(S(=O)(=O)O)cc3cc(S(=O)(=O)O)c(c(OC(=O)CCCCC)c3c1OC(=O)CCCCC)Cc1c(S(=O)(=O)O)cc3cc(S(=O)(=O)O)c(c(OC(=O)CCCCC)c3c1OC(=O)CCCCC)Cc1c(S(=O)(=O)O)cc3cc(S(=O)(=O)O)c(c(OC(=O)CCCCC)c3c1OC(=O)CCCCC)C2` [KY-291], the EC100 was 32 µg/mL with HIV-RF-II and 16 µg/mL in the experiment with HIV-HXB.

Turning to `CC=CC(=O)Oc1c2c(S(=O)(=O)O)cc3cc(S(=O)(=O)O)c(c(OC(=O)C=CC)c13)Cc1c(S(=O)(=O)O)cc3cc(S(=O)(=O)O)c(c(OC(=O)C=CC)c3c1OC(=O)C=CC)Cc1c(S(=O)(=O)O)cc3cc(S(=O)(=O)O)c(c(OC(=O)C=CC)c3c1OC(=O)C=CC)Cc1c(S(=O)(=O)O)cc3cc(S(=O)(=O)O)c(c(OC(=O)C=CC)c3c1OC(=O)C=CC)C2` [KY-293], the EC100 was 63 µg/mL in the experiment on HIV-RF-II and 16 µg/mL in the experiment with HIV-HXB.

`O=C(O)CCCCCCC(=O)Oc1c2c(S(=O)(=O)O)cc3cc(S(=O)(=O)O)c(c(OC(=O)CCCCCCC(=O)O)c13)Cc1c(S(=O)(=O)O)cc3cc(S(=O)(=O)O)c(c(OC(=O)CCCCCCC(=O)O)c3c1OC(=O)CCCCCCC(=O)O)Cc1c(S(=O)(=O)O)cc3cc(S(=O)(=O)O)c(c(OC(=O)CCCCCCC(=O)O)c3c1OC(=O)CCCCCCC(=O)O)Cc1c(S(=O)(=O)O)cc3cc(S(=O)(=O)O)c(c(OC(=O)CCCCCCC(=O)O)c3c1OC(=O)CCCCCCC(=O)O)C2` [KY-294]: the EC100 in the experiment with HIV-RF-II and in the experiment on HIV-HXB was 16 µg/mL each time.

For the compound `O=C(O)CCCCCOc1c2c(S(=O)(=O)O)cc3cc(S(=O)(=O)O)c(c(OCCCCCC(=O)O)c13)Cc1c(S(=O)(=O)O)cc3cc(S(=O)(=O)O)c(c(OCCCCCC(=O)O)c3c1OCCCCCC(=O)O)Cc1c(S(=O)(=O)O)cc3cc(S(=O)(=O)O)c(c(OCCCCCC(=O)O)c3c1OCCCCCC(=O)O)Cc1c(S(=O)(=O)O)cc3cc(S(=O)(=O)O)c(c(OCCCCCC(=O)O)c3c1OCCCCCC(=O)O)C2` [KY-307], the EC100 with HIV-RF-II is 32 µg/mL; in the experiment on HIV-HXB, 8 µg/mL.

Regarding `O=C(O)CNS(=O)(=O)c1cc2cc(S(=O)(=O)NCC(=O)O)c3c(O)c2c(O)c1Cc1c(S(=O)(=O)NCC(=O)O)cc2cc(S(=O)(=O)NCC(=O)O)c(c(O)c2c1O)Cc1c(S(=O)(=O)NCC(=O)O)cc2cc(S(=O)(=O)NCC(=O)O)c(c(O)c2c1O)Cc1c(S(=O)(=O)NCC(=O)O)cc2cc(S(=O)(=O)NCC(=O)O)c(c(O)c2c1O)C3` [KY-357], the values for the EC100 with HIV-RF-II and in the experiment with HIV-HXB were 63 µg/mL and 32 µg/mL, respectively.
